According to patent US9724276B2, “Dental materials and method of manufacture” (Valspar Sourcing, Inc., priority 2012, dated 2017):

Target: T1, human estrogen receptor (Homo sapiens, UniProt P03372)
T1 sequence (P03372 1-595): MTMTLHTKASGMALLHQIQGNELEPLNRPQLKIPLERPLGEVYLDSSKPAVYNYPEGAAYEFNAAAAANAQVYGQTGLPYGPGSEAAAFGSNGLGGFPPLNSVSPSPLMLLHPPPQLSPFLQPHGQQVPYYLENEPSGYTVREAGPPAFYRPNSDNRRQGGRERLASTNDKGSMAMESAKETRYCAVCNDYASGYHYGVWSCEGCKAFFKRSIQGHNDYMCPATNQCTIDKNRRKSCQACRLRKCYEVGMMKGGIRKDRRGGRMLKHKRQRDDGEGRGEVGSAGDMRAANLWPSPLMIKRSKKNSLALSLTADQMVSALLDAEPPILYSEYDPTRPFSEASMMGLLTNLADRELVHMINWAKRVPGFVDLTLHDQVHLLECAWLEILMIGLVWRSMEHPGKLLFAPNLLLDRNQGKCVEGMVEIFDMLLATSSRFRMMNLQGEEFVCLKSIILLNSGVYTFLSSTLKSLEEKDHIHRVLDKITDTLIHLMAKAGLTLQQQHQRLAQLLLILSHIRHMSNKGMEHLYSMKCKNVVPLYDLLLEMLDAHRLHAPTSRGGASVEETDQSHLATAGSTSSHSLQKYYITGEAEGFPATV
Assay: suitable in vitro assay of estrogenic activity whose results correlate with the MCF-7 assay (outside toxicology laboratory)
Settings: in vitro assay correlated to MCF-7 assay through common reference compounds
Experimental: The polyhydric phenols used to make the diglycidyl ethers of each of Runs I-III were assayed for estrogenic activity by an outside toxicology laboratory using a suitable assay whose results are known to be directly correlatable to the MCF-7 assay based on common reference compounds.

Row | SMILES | estrogenic activity
1 | Cc1cc(Cc2cc(C)cc(C(C)(C)C)c2O)c(O)c(C(C)(C)C)c1 [Structure 9] | do not exhibit appreciable estrogenic activity
2 | CC(C)(C)c1cc(Cc2cc(C(C)(C)C)c(O)c(C(C)(C)C)c2)cc(C(C)(C)C)c1O [Structure 8, 4,4′-methylenebis(2,6-di-t-butylphenol)] | do not exhibit appreciable estrogenic activity
3 | CC(C)(C)c1cc(O)c(C(C)(C)C)cc1O [Structure 12, 2,5-di-t-butylhydroquinone] | do not exhibit appreciable estrogenic activity
4 | Cc1cc(Cc2cc(C)c(O)c(C)c2)cc(C)c1O [Structure 6, 4,4′-methylenebis(2,6-dimethylphenol)] | do not exhibit appreciable estrogenic activity
5 | CCCC(c1cc(C(C)(C)C)c(O)cc1C)c1cc(C(C)(C)C)c(O)cc1C [Structure 7, 4,4′-butylidenebis(2-t-butyl-5-methylphenol)] | do not exhibit appreciable estrogenic activity

System: not listed separately
Assay: genotoxicity assays (e.g., Ames II assay)
Settings: not given

Row | SMILES | genotoxicity
6 | CC(C)(C)c1cc(Cc2cc(C(C)(C)C)c(OCC3CO3)c(C(C)(C)C)c2)cc(C(C)(C)C)c1OCC1CO1 (stereo not drawn) [Diglycidyl ether of 4,4′-methylenebis(2,6-di-tert-butylphenol)] | non-genotoxic

System: MCF-7, clone WS8, cells
Assay: MCF-7 cell proliferation assay of estrogenic activity
Format: cell-based, human
Settings: logarithmic (base 10) Relative Proliferative Effect relative to 17-beta estradiol, MCF-7 assay; values 'expected or measured'
Description: The MCF-7 assay is a useful test for assessing whether a polyhydric phenol compound is appreciably non-estrogenic. The MCF-7 assay uses MCF-7, clone WS8, cells to measure whether and to what extent a substance induces cell proliferation via estrogen receptor (ER)-mediated pathways. The method is described in “Test Method Nomination: MCF-7 Cell Proliferation Assay of Estrogenic Activity” submitted for validation by CertiChem, Inc. to the National Toxicology Program Interagency Center for the Evaluation of Alternative Toxicological Methods (NICEATM) on Jan. 19, 2006 (available online at iccvam.niehs.nih gov/methods/endocrine/endodocs/SubmDoc.pdf).
A brief summary of the method of the aforementioned MCF-7 assay is provided below. MCF-7, clone WS8, cells are maintained at 37° C. in RMPI (or Roswell Park Memorial Institute medium) containing Phenol Red (e.g., GIBCO Catalog Number 11875119) and supplemented with the indicated additives for routine culture. An aliquot of cells maintained at 37° C. are grown for two days in phenol-free media containing 5% charcoal stripped fetal bovine serum in a 25 cm^2 tissue culture flask. Using a robotic dispenser such as an EPMOTION™ 5070 unit from Eppendorf AG, MCF-7 cells are seeded at 400 cells per well in 0.2 ml of hormone-free culture medium in Corning 96-well plates. The cells are adapted for 3 days in the hormone-free culture medium prior to adding the chemical to be assayed for estrogenic activity. The media containing the test chemical is replaced daily for 6 days. At the end of a 7 day exposure to the test chemical, the media is removed, the wells are washed once with 0.2 ml of HBSS (Hanks' Balanced Salt Solution), and then assayed to quantify amounts of DNA per well using a micro-plate modification of the Burton diphenylamine (DPA) assay, which is used to calculate the level of cell proliferation. […]

Row | SMILES | Log RPE
7 | O=S(=O)(c1ccc(O)cc1)c1ccc(O)cc1 [Bisphenol S] | −2
8 | Oc1ccc(Cc2ccc(O)cc2)cc1 [Bisphenol F] | −2
9 | C[C@]12CC[C@@H]3c4ccc(O)cc4CC[C@H]3[C@@H]1CC[C@@H]2O [17β-estradiol] | 2.00
